PubChem BioAssay (NCI)
“And” between values parts separate entries of the source, which are not always exact repeats. Equal values may be shown once.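 Values below derive from 48-hour exposures of cells grown in 96-well plates, with endpoints linearly interpolated between the two concentrations bracketing the appropriate inhibition level. GI50: concentration for 50% inhibition of growth. TGI is the concentration that stops growth completely.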

Legend:
Assay in all cases: inhibition of tumour cell growth, NCI panel, 48 h
EKVX NSCLC = system: EKVX NSCLC
UO-31 renal = system: UO-31 renal
IGROV1 ovarian = system: IGROV1 ovarian
ACHN renal = system: ACHN renal
SK-MEL-28 melanoma = system: SK-MEL-28 melanoma
UACC-62 melanoma = system: UACC-62 melanoma
HCT-15 colon = system: HCT-15 colon
NCI-H460 lung = system: NCI-H460 lung
MDA-MB-435 = system: MDA-MB-435
PC-3 prostate = system: PC-3 prostate

| SMILES | TGI (EKVX NSCLC) | TGI (UO-31 renal) | TGI (IGROV1 ovarian) | TGI (ACHN renal) | TGI (SK-MEL-28 melanoma) | TGI (UACC-62 melanoma) | TGI (HCT-15 colon) | TGI (NCI-H460 lung) | GI50 (UO-31 renal) | GI50 (MDA-MB-435) | TGI (MDA-MB-435) | GI50 (IGROV1 ovarian) | GI50 (ACHN renal) | GI50 (SK-MEL-28 melanoma) | GI50 (UACC-62 melanoma) | GI50 (HCT-15 colon) | GI50 (PC-3 prostate) | TGI (PC-3 prostate) | GI50 (NCI-H460 lung) | GI50 (EKVX NSCLC) |
| --- | --- | --- | --- | --- | --- | --- | --- | --- | --- | --- | --- | --- | --- | --- | --- | --- | --- | --- | --- | --- |
| COC1[C@H](NC(=O)OC(C)(C)C)C(=O)N1Cc1ccccc1 (some centres undefined) | > 100 µM | > 100 µM | > 100 µM | > 100 µM | > 100 µM | > 100 µM | > 100 µM | > 100 µM | – | – | – | – | – | – | – | – | – | – | – | – |
| CC(c1ccccc1)[C@@H](C(=O)Nc1ccc(I)cc1F)N1C(=O)N[C@H](c2ccc(OC[C@H](O)CO)cc2)C1=O (some centres undefined) | – | > 25 µM | > 25 µM | > 25 µM | > 25 µM | 2.25 µM | > 25 µM | > 25 µM | 9.91 µM | 0.0817 µM | > 25 µM | 2.04 µM | 8.48 µM | 0.026 µM | 55.1 nM | 11.4 µM | > 15.4 µM | > 25 µM | > 14.6 µM | – |
| Cc1cc(=O)n(-c2c(C)cccc2Cl)c(/C=C(\O)c2ccncc2)n1 | > 100 µM | > 100 µM | > 100 µM | > 100 µM | > 100 µM | > 100 µM | > 100 µM | > 100 µM | – | – | – | – | – | – | – | – | – | – | – | – |
| C[C@H](CS)C(=O)N1c2ccccc2C[C@H]1C(=O)O | > 100 µM | > 100 µM | > 100 µM | > 100 µM | > 100 µM | > 100 µM | > 100 µM | > 100 µM | – | – | – | – | – | – | – | – | – | > 100 µM | – | – |
| CC(=O)OC(C)(C)/C=C/C(=O)[C@](C)(O)[C@H]1[C@H](O)C[C@@]2(C)[C@@H]3CC=C4[C@@H](C=C(O)C(=O)C4(C)C)[C@]3(C)C(=O)C[C@]12C | – | – | – | 0.25 µM and 0.0794 µM | – | 1.56 µM and 0.806 µM and 1.17 µM | – | 1.81 µM and 1.68 µM and 1.49 µM | – | 0.0404 µM | 0.194 µM | – | 0.0306 µM | – | – | – | 0.0408 µM | 1.48 µM | – | – |
| Cc1ccc(Cl)cc1NC(=O)c1cc2ccccc2cc1O | 4.51 µM | 1.47 µM | 3.95 µM | 2.8 µM | – | 2.65 µM | – | 2.28 µM | 0.201 µM | – | – | 0.189 µM | 0.351 µM | – | 308 nM | 0.506 µM | 0.289 µM | – | 0.376 µM | 342 nM |
| CN(C)C(=O)NC(=S)N(C)C | > 100 µM | > 100 µM | > 100 µM | > 100 µM | > 100 µM | > 100 µM | > 100 µM | > 100 µM | – | – | – | – | – | – | – | – | – | – | – | – |
| CCCCCCCCCCSC(=O)NC | 71.4 µM | > 100 µM | > 100 µM | > 100 µM | 68.4 µM | > 100 µM | 54.8 µM | > 100 µM | – | – | – | – | – | – | – | – | – | – | – | – |
| CCOc1ccc2c(c1)CN(Cc1ccc(Cl)cc1)CO2 | – | 43.8 µM | 63.7 µM | 55 µM | 28.4 µM | 31.2 µM | 34.1 µM | 32.4 µM | 8.82 µM | 15.2 µM | 29.5 µM | 23 µM | 19.3 µM | 14.4 µM | 16100 nM | 16.5 µM | 27.9 µM | > 100 µM | 16 µM | – |
| C[C@@H](NC(=O)c1ncnc(N)c1Cl)c1ncc(C(=O)Nc2cc(C(F)(F)F)c(Cl)cn2)s1 | – | 44.4 µM | 39.6 µM | > 100 µM | 15.8 µM | 8.7 µM | > 100 µM | 79.9 µM | 8.98 µM | 2.27 µM | 34.3 µM | 10.8 µM | 15.7 µM | 0.696 µM | 402 nM | 21.9 µM | 25.3 µM | > 76.6 µM | 20.4 µM | – |
| Clc1ccc(OCc2nnc3n2N=C(c2ccc(Br)cc2)CS3)cc1 | – | 19.6 µM | – | > 100 µM | > 100 µM | > 100 µM | > 100 µM | 82 µM | – | – | – | – | – | – | – | – | – | – | – | – |
| OCc1ccc(N2CCc3cc(F)ccc3C2)cc1Cl | – | 18.4 µM | 0.0941 µM | 24.4 µM | 26.9 µM | 0.198 µM | 21.2 µM | 1.84 µM | 1.7 µM | 13.1 µM | 27.6 µM | 0.017 µM | 11.8 µM | 13.8 µM | 25.6 nM | 3.98 µM | 11 µM | 27.6 µM | 0.0583 µM | – |
| O=C(N/C(=C\c1ccccc1Cl)c1nc2ccccc2[nH]1)c1ccccc1 | 88 µM | 44.8 µM | > 100 µM | > 100 µM | > 100 µM | > 100 µM | > 100 µM | – | – | – | – | – | – | – | – | – | – | – | – | – |
| COc1cccc(C2=C(c3cn(C)c4cc(F)ccc34)C(=O)NC2=O)c1 | – | > 25 µM | > 25 µM | > 25 µM | > 25 µM | > 25 µM | > 25 µM | > 25 µM | 9.19 µM | 11.7 µM | > 25 µM | > 25 µM | 10.5 µM | > 25 µM | 14300 nM | 12.7 µM | 12.5 µM | > 25 µM | > 18.6 µM | – |
| CN(C)CCn1cnc2ncccc2c1=O | > 100 µM | > 100 µM | > 100 µM | > 100 µM | > 100 µM | > 100 µM | – | > 100 µM | – | – | – | – | – | – | – | – | – | – | – | – |
| NC1=NC(=O)/C(=C/c2ccc3ncccc3c2)S1 | – | > 25 µM | > 25 µM | > 25 µM | > 25 µM | > 25 µM | > 25 µM | > 25 µM | > 25 µM | > 10.9 µM | > 25 µM | > 25 µM | > 25 µM | > 25 µM | > 25000 nM | > 25 µM | > 25 µM | > 25 µM | > 25 µM | – |
| CCOC(=O)C(NO)C(Sc1ccccc1)c1ccc(OC)cc1 (centres undefined) | > 100 µM | > 100 µM | > 100 µM | > 100 µM | > 100 µM | > 100 µM | > 100 µM | > 100 µM | – | – | – | – | – | – | – | – | – | – | – | – |
